For one assay, the target named is BRM (Homo sapiens, UniProt P51531). The assay is described as follows: Immunofluorescence assay for BRM degradation in SW1573 cells. Type of assay: cell-based. Details: treated overnight at 4° C. with either BRM primary antibody (Cell signaling Cat #11966) or BRG primary antibody; endogenous in cells; host or cells: SW1573. The settings on record: 20 hours incubation; for DC50: immunofluorescence mean nuclear signal, read-out: BRM IF Degradation IC50; for BRM IF Degradation Sinf (%): normalized to a known degrader control. The method, boiled down:
(§1)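 Degradation measured as loss of nuclear BRM or BRG1 staining in SW1573 cells after 20 h compound exposure. Signal per cell was imaged and normalized to a known degrader; curves with floating maximum yielded IC50 and Dmax.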

A further assay has as its target T1, BRG1 (Homo sapiens, UniProt P51532).
T1 construct: either BRM primary antibody (Cell signaling Cat #11966) or BRG primary antibody (Abcam, ab 110641); endogenous in cells; host or cells: SW1573
Put plainly: Immunofluorescence assay for BRG1 degradation in SW1573 cells. Type of assay: cell-based. To be noted: 20 hours incubation; for DC50: immunofluorescence mean nuclear signal, read-out: BRG1 IF Degradation IC50; for Dmax: SW1573, 20 h, read-out: BRG1 IF Degradation Sinf (%); for Dmax / BRG1 IF Degradation Sinf (%): normalized to a known degrader control. The method, boiled down:
as §1

BRM, sequence (P51531 whole entry): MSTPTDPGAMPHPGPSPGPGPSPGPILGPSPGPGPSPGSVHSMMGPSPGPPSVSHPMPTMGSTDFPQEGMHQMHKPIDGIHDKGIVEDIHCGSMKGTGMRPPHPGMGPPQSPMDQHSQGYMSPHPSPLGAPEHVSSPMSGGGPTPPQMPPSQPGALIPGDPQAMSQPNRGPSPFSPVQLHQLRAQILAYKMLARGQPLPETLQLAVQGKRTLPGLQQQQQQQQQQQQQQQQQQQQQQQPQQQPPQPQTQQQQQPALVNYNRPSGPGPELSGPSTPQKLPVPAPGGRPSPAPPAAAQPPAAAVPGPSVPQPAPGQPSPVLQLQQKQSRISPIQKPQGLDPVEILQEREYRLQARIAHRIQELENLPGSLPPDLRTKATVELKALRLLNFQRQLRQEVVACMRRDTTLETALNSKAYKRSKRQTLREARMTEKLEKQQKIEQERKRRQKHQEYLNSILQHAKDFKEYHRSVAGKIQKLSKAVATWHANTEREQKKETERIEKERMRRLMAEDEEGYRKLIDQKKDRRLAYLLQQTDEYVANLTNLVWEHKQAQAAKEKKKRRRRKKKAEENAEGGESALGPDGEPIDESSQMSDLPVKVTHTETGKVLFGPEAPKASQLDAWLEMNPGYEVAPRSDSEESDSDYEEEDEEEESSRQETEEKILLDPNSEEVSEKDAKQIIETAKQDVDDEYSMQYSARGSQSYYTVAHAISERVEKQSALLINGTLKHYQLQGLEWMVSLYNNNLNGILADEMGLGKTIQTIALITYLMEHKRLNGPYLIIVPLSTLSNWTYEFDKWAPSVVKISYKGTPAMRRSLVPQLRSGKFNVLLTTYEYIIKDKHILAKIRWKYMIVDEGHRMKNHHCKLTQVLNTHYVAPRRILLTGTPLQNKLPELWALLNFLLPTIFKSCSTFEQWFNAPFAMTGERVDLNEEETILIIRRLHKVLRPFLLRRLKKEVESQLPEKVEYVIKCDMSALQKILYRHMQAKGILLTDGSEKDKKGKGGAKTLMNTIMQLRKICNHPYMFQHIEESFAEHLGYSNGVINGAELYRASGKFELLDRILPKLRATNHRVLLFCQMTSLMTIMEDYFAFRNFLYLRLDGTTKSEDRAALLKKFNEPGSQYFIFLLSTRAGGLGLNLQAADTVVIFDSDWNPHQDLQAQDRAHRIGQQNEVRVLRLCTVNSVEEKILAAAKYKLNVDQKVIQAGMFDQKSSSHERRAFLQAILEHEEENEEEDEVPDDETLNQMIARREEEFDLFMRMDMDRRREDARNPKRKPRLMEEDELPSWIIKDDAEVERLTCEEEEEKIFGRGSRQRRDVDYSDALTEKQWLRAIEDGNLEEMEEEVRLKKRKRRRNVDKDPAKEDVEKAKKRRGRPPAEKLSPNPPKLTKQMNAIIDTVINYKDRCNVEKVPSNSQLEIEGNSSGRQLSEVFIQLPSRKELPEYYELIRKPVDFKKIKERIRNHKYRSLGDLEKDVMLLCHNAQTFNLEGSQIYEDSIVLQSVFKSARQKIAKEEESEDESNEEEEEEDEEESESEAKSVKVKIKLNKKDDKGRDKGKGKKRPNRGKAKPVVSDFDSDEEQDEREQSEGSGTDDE
T1 sequence (P51532 whole entry): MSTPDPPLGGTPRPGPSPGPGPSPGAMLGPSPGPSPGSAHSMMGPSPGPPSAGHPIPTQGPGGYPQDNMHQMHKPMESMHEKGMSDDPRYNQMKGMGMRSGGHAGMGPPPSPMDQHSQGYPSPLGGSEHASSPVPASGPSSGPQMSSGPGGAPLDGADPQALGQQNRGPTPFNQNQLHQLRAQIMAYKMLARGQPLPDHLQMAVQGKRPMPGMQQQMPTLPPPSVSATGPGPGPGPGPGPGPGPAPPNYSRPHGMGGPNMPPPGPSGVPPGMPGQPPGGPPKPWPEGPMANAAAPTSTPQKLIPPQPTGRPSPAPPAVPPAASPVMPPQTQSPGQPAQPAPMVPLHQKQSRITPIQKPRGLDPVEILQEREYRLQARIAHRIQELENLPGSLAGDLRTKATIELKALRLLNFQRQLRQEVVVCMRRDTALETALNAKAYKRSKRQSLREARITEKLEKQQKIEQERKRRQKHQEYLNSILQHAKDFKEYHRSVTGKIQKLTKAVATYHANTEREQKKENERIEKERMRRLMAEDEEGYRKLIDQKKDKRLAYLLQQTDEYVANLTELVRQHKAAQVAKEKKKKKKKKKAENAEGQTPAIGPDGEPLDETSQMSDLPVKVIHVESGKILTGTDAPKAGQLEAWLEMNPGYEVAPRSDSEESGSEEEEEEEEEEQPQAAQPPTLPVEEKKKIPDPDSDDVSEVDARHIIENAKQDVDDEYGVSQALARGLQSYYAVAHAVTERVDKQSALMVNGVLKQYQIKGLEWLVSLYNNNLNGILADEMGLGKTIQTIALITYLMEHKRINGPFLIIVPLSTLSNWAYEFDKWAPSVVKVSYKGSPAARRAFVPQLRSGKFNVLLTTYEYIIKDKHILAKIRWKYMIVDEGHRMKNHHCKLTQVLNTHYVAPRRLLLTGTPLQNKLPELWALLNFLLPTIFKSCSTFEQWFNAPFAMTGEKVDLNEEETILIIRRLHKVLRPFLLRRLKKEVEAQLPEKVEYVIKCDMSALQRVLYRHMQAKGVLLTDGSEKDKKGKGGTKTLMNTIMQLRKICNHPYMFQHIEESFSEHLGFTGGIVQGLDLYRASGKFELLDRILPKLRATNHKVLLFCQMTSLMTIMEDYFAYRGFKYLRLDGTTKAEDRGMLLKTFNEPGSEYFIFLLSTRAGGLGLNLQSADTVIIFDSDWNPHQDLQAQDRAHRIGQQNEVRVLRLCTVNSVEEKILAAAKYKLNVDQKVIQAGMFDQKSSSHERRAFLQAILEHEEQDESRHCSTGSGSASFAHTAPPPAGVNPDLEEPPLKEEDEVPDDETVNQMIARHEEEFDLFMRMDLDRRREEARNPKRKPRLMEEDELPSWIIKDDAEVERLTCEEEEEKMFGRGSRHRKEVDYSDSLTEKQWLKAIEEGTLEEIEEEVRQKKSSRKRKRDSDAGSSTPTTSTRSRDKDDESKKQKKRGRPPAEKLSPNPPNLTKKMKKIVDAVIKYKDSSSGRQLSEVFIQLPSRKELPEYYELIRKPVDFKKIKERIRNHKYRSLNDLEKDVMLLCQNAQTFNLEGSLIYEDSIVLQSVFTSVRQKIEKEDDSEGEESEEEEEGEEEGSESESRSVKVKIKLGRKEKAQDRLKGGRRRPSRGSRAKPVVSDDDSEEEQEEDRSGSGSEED

On to `CN1C[C@@H]2C[C@H]1CN2CC#Cc1cc(N2C3CCC2CN(c2cc(-c4ccccc4O)nnc2N)C3)ccn1` [Compound 164, 2-[6-amino-5-[8-[2-[3-[(1S,4S)-5-methyl-2,5-diazabicyclo[2.2.1]heptan-2-yl]prop-1-ynyl]-4-pyridyl]-3,8-diazabicyclo[3.2.1]octan-3-yl]pyridazin-3-yl]phenol], for which, at BRM, the DC50 was 10 to 100 nM and the “BRM IF Degradation Sinf (%)” value is recorded as “E (E indicates −30%-−70%)”. Moreover, at BRG1, the DC50 was greater than 100 nM and the Dmax fell in the range of 0 to 30%.
Turning to `Nc1nnc(-c2ccccc2O)cc1N1CC2CCC(C1)N2c1ccnc(C#CCN2CCC[C@]23CCNC3)c1` [Compound 165, 2-[6-amino-5-[8-[2-[3-[(5R)-1,7-diazaspiro[4.4]nonan-1-yl]prop-1-ynyl]-4-pyridyl]-3,8-diazabicyclo[3.2.1]octan-3-yl]pyridazin-3-yl]phenol], the DC50 on BRM and on BRG1 was greater than 100 nM in each case. Further, the “BRM IF Degradation Sinf (%)” value on BRM is on record as “E (E indicates −30%-−70%)”.
For `Nc1nnc(-c2ccccc2O)cc1N1CC2CCC(C1)N2c1ccnc(C#CCN2CCCCC2)c1` [Compound 166, 2-(6-amino-5-(8-(2-(3-(piperidin-1-yl)prop-1-yn-1-yl)pyridin-4-yl)-3,8-diazabicyclo[3.2.1]octan-3-yl)pyridazin-3-yl)phenol], the DC50 was less than 10 nM at BRM and greater than 100 nM at BRG1. For the same compound, the “BRM IF Degradation Sinf (%)” value at BRM is recorded as “E (E indicates −30%-−70%)”.
Take `Nc1nnc(-c2ccccc2O)cc1N1CC2CCC(C1)N2c1ccnc(C#CCN2CCC23CCOC3)c1` (centres unmarked) [Compound 167, 2-[6-amino-5-[8-[2-[3-(7-oxa-1-azaspiro[3.4]octan-1-yl)prop-1-ynyl]-4-pyridyl]-3,8-diazabicyclo[3.2.1]octan-3-yl]pyridazin-3-yl]phenol]: at BRM, the DC50 was less than 10 nM and the “BRM IF Degradation Sinf (%)” value is reported as “F (F indicates −71%-−120%)”. Moreover, at BRG1, the DC50 is less than 10 nM and the “BRG1 IF Degradation Sinf (%)” value is on record as “F (F indicates −71%-−120%)”.
`Nc1nnc(-c2ccccc2O)cc1N1CC2CCC(C1)N2c1ccnc(C#CCN2CC(O)C2)c1` [Compound 168, 1-[3-[4-[3-[3-amino-6-(2-hydroxyphenyl)pyridazin-4-yl]-3,8-diazabicyclo[3.2.1]octan-8-yl]-2-pyridyl]prop-2-ynyl]azetidin-3-ol]: at BRM, the DC50 lay in the range of 10 to 100 nM and the “BRM IF Degradation Sinf (%)” value is reported as “F (F indicates −71%-−120%)”. Besides, on BRG1, the DC50 fell in the range of 10 to 100 nM and the “BRG1 IF Degradation Sinf (%)” value is “E (E indicates −30%-−70%)”.
For the compound `COC1(C)CN(CC#Cc2cc(N3C4CCC3CN(c3cc(-c5ccccc5O)nnc3N)C4)ccn2)C1` [Compound 169, 2-[6-amino-5-[8-[2-[3-(3-methoxy-3-methyl-azetidin-1-yl)prop-1-ynyl]-4-pyridyl]-3,8-diazabicyclo[3.2.1]octan-3-yl]pyridazin-3-yl]phenol], at BRM, the DC50 was less than 10 nM and the “BRM IF Degradation Sinf (%)” value is on record as “E (E indicates −30%-−70%)”. Moreover, on BRG1, the DC50 was in the range of 10 to 100 nM and the Dmax was in the range of 30 to 70%.
The like results for `CC1(CO)CN(CC#Cc2cc(N3C4CCC3CN(c3cc(-c5ccccc5O)nnc3N)C4)ccn2)C1` [Compound 170, 2-[6-amino-5-[8-[2-[3-[3-(hydroxymethyl)-3-methyl-azetidin-1-yl]prop-1-ynyl]-4-pyridyl]-3,8-diazabicyclo[3.2.1]octan-3-yl]pyridazin-3-yl]phenol] were, in that order, 10 to 100 nM, “E (E indicates −30%-−70%)”, greater than 100 nM and 30 to 70%.
Regarding `Nc1nnc(-c2ccccc2O)cc1N1CC2CCC(C1)N2c1ccnc(C#CCN2CC(F)(CO)C2)c1` [Compound 171, 2-[6-amino-5-[8-[2-[3-[3-fluoro-3-(hydroxymethyl)azetidin-1-yl]prop-1-ynyl]-4-pyridyl]-3,8-diazabicyclo[3.2.1]octan-3-yl]pyridazin-3-yl]phenol], at BRM, the DC50 is greater than 100 nM and the “BRM IF Degradation Sinf (%)” value is “E (E indicates −30%-−70%)”. The DC50 on BRG1 is greater than 100 nM.
For the compound `CC1CN(CC#Cc2cc(N3C4CCC3CN(c3cc(-c5ccccc5O)nnc3N)C4)ccn2)C1` [Compound 172, 2-[6-amino-5-[8-[2-[3-(3-methylazetidin-1-yl)prop-1-ynyl]-4-pyridyl]-3,8-diazabicyclo[3.2.1]octan-3-yl]pyridazin-3-yl]phenol], at BRM, the DC50 was less than 10 nM and the “BRM IF Degradation Sinf (%)” value is reported as “E (E indicates −30%-−70%)”. Further, at BRG1, the DC50 is 10 to 100 nM and the Dmax fell in the range of 71 to 120%.
The like results for `CC1(F)CN(CC#Cc2cc(N3C4CCC3CN(c3cc(-c5ccccc5O)nnc3N)C4)ccn2)C1` [Compound 173, 2-[6-amino-5-[8-[2-[3-(3-fluoro-3-methyl-azetidin-1-yl)prop-1-ynyl]-4-pyridyl]-3,8-diazabicyclo[3.2.1]octan-3-yl]pyridazin-3-yl]phenol] were, in that order, 10 to 100 nM, “F (F indicates −71%-−120%)”, 10 to 100 nM and 30 to 70%.
Regarding `COC1CN(CC#Cc2cc(N3C4CCC3CN(c3cc(-c5ccccc5O)nnc3N)C4)ccn2)C1` [Compound 174, 2-[6-amino-5-[8-[2-[3-(3-methoxyazetidin-1-yl)prop-1-ynyl]-4-pyridyl]-3,8-diazabicyclo[3.2.1]octan-3-yl]pyridazin-3-yl]phenol], at BRM, the DC50 was 10 to 100 nM and the “BRM IF Degradation Sinf (%)” value was “F (F indicates −71%-−120%)”. Further, at BRG1, the DC50 fell in the range of 10 to 100 nM and the Dmax is 30 to 70%.
As to `Nc1nnc(-c2ccccc2O)cc1N1CC2CCC(C1)N2c1ccnc(C#CCN2CC3(CCCOC3)C2)c1` [Compound 175, 2-[6-amino-5-[8-[2-[3-(6-oxa-2-azaspiro[3.5]nonan-2-yl)prop-1-ynyl]-4-pyridyl]-3,8-diazabicyclo[3.2.1]octan-3-yl]pyridazin-3-yl]phenol], on BRM, the DC50 is less than 10 nM and the “BRM IF Degradation Sinf (%)” value is “E (E indicates −30%-−70%)”. Further, on BRG1, the DC50 was less than 10 nM and the Dmax was in the range of 30 to 70%.
In the case of `COC(=O)C1CCN1CC#Cc1cc(N2C3CCC2CN(c2cc(-c4ccccc4O)nnc2N)C3)ccn1` (centres unmarked) [Compound 176, methyl 1-[3-[4-[3-[3-amino-6-(2-hydroxyphenyl)pyridazin-4-yl]-3,8-diazabicyclo[3.2.1]octan-8-yl]-2-pyridyl]prop-2-ynyl]azetidine-2-carboxylate], at BRM, the DC50 is 10 to 100 nM and the “BRM IF Degradation Sinf (%)” value is on record as “E (E indicates −30%-−70%)”. Moreover, the DC50 on BRG1 was greater than 100 nM.
With `Nc1nnc(-c2ccccc2O)cc1N1CC2CCC(C1)N2c1ccnc(C#CCN2CC3(C2)C(CF)CCS3(=O)=O)c1` (centres unmarked) [Compound 177, 2-[6-amino-5-[8-[2-[3-[8-(fluoromethyl)-5,5-dioxo-5lambda6-thia-2-azaspiro[3.4]octan-2-yl]prop-1-ynyl]-4-pyridyl]-3,8-diazabicyclo[3.2.1]octan-3-yl]pyridazin-3-yl]phenol], on BRM, the DC50 was in the range of 10 to 100 nM and the “BRM IF Degradation Sinf (%)” value was “E (E indicates −30%-−70%)”. On BRG1, the DC50 was in the range of 10 to 100 nM and the Dmax lay within 30 to 70%.
Consider `Nc1nnc(-c2ccccc2O)cc1N1CC2CCC(C1)N2c1ccnc(C#CCN2CC3(CCCO3)C2)c1` [Compound 178, 2-[6-amino-5-[8-[2-[3-(5-oxa-2-azaspiro[3.4]octan-2-yl)prop-1-ynyl]-4-pyridyl]-3,8-diazabicyclo[3.2.1]octan-3-yl]pyridazin-3-yl]phenol], for which, on BRM, the DC50 lay in the range of 10 to 100 nM and the “BRM IF Degradation Sinf (%)” value is reported as “F (F indicates −71%-−120%)”. Also, on BRG1, the DC50 is less than 10 nM and the Dmax was in the range of 30 to 70%.
For `Nc1nnc(-c2ccccc2O)cc1N1CC2CCC(C1)N2c1ccnc(C#CCN2CC(CO)(c3ccccc3)C2)c1` [Compound 179, 2-[6-amino-5-[8-[2-[3-[3-(hydroxymethyl)-3-phenyl-azetidin-1-yl]prop-1-ynyl]-4-pyridyl]-3,8-diazabicyclo[3.2.1]octan-3-yl]pyridazin-3-yl]phenol], in that order: 10 to 100 nM, “F (F indicates −71%-−120%)”, 10 to 100 nM and 30 to 70%.
For the compound `CC1CN(CC#Cc2cc(N3C4CCC3CN(c3cc(-c5ccccc5O)nnc3N)C4)ccn2)C1C` (centres unmarked) [Compound 180, 2-[6-amino-5-[8-[2-[3-(2,3-dimethylazetidin-1-yl)prop-1-ynyl]-4-pyridyl]-3,8-diazabicyclo[3.2.1]octan-3-yl]pyridazin-3-yl]phenol], on BRM, the DC50 was less than 10 nM and the “BRM IF Degradation Sinf (%)” value is reported as “E (E indicates −30%-−70%)”. At BRG1, the DC50 is less than 10 nM and the Dmax was in the range of 30 to 70%.
For the compound `Nc1nnc(-c2ccccc2O)cc1N1CC2CCC(C1)N2c1ccnc(C#CCN2CCCCC(F)(F)C2)c1` [Compound 181, 2-[6-amino-5-[8-[2-[3-(3,3-difluoroazepan-1-yl)prop-1-ynyl]-4-pyridyl]-3,8-diazabicyclo[3.2.1]octan-3-yl]pyridazin-3-yl]phenol], on BRM, the DC50 lay in the range of 10 to 100 nM and the “BRM IF Degradation Sinf (%)” value was “F (F indicates −71%-−120%)”. Further, at BRG1, the DC50 lay within 10 to 100 nM and the Dmax is 30 to 70%.
